How the values were obtained:
Type in all cases: cell-based, C57BL/6 mice
Vb6+ CD8 clone = system: Vb6+ CD8 clone
Vb6-CD8 clone = system: Vb6-CD8 clone
CD8 cells = system: CD8 cells

Substance | IFN-γ by ELISA (Vb6+ CD8 clone) | proliferation (3H-thymidine incorporation, stimulation index) (Vb6+ CD8 clone) | response pattern (IFN-γ and proliferation) (Vb6-CD8 clone) | TNF-α and IFN-γ expression (CD8 cells)
H-VAHSVIGFIQRMFSE-OH [YopE peptide number 14] | specifically produced IFN-γ | proliferated | identical response pattern | –
H-SVIGFIQRM-OH [SEQ ID NO: 3] | – | – | – | stimulated TNF-α and IFN-γ expression from nearly as many CD8 cells as did the polyclonal stimulus anti-CD3
